Laboratory results from BindingDB's records for doi:10.1021/jm00123a006 (University of Pennsylvania, 1989).

Target: 5-HT1A receptor (Bos taurus)
Assay: In vitro inhibition of [3H]5-HT (2 nM) binding to 5-hydroxytryptamine 1A receptor from bovine hippocampus

- IC50: 35 nM
Structure (SMILES): [N-]=[N+]=Nc1ccc(CCN2CCN(c3cccc(C(F)(F)F)c3)CC2)cc1I
